Experimental data: patent US20170240592A1, “GADD45BETA/MKK7 INHIBITOR FOR THE TREATMENT OF A RESISTANT HAEMATOLOGICAL MALIGNANCY” (IMPERIAL INNOVATIONS LIMITED, priority 2014, published 2017)

Experiments:
[1] = system: drug-resistant multiple myeloma cell lines; experiment: [3H]thymidine incorporation assay, sensitive and drug-resistant multiple myeloma cell lines; format: cell-based, human; details: 6-day treatment; MM1.R, AMO-1a, MM1/R10R, U266/R10R
Excerpt: Matching pairs of sensitive (parental) and drug-resistant multiple myeloma cell lines were as follows: MM1.S (parental) and MM1.R (dexamethasone-resistant); AMO-1 (parental) and AMO-1a (bortezomib-resistant); MM1.S (parental) and MM1/R10R (lenalidomide-resistant); U266 (parental) and U266/R10R (lenalidomide-resistant). […] For clarity purposes, the same data for the parental MM1.S MM multiple myeloma cell line are shown as control for the dexamethasone-resistant (MM1.R) MM multiple myeloma cell line and the lenalidomide-resistant (MM1/R10R) MM multiple myeloma cell line.

FIG. 14 = experiment: FIG. 14
Excerpt: Table printed on a drawing sheet, FIG. 14
Values denote means±SD (n=3).
First reader's note: Each cell holds the value ± error and its unit together.

[2] = mouse, in vivo, iv, 10 mg/kg
Protocol: In vitro pharmacokinetic assays were performed according to established, in-house protocols and included: plasma stability (human), thermodynamic solubility (PBS pH 7.4, at 37° C. for 14 days), microsomal stability (human), plasma protein binding (PPB; mouse and human), and distribution coefficient (Log D). In vivo pharmacokinetic analyses were also performed at Cyprotex according to established, in-house protocols. Briefly, the peptides were dissolved in PBS and administered by single intravenous injection to CD1 male mice at the dose of 10 mg/kg (25-30 g of total body weight; n=3 mice per time point per compound). Blood samples were collected in heparinized tubes at up to 7 time points after this injection (i.e. 0.08, 0.25, 0.5, 1, 2, 4 and 8 hr), and the plasma concentrations of the test peptide were determined at each time point by LC-MS/MS, using a five-point standard curve covering a peptide concentration range from 3 to 3,000 ng/mL. Standard curves were prepared using blank plasma matrices and treated in the same manner as the test samples. […] Values were calculated from the data of the peptide plasma concentration versus time curves using a non-compartmental model analysis, as described elsewhere (Groulx, 2006; Landaw and Di Stefano 3rd, 1982). The doses of z-DTP2 and DTP3 predicted to achieve the therapeutic plasma concentration of 1 μM at the steady state were calculated from the measured pharmacokinetic values using the following equation: k0=k1×Vd×Cp (where Vd is expressed in L/kg; Cp is the plasma concentration at the steady state expressed in mg/L; k0 is the zero order input expressed in mg/kg/hr; k1 is the first order elimination constant [0.693/t1/2]).

[3] = system: subcutaneous U266 myeloma xenografts; experiment: plasmacytoma model, subcutaneous U266 myeloma xenografts; format: in vivo, NOD/SCID mice; details: for effect on established subcutaneous myeloma xenografts (tumour volume): to day 28
Protocol: (§1) Values denote means±SEM (n=16). ***, p<0.001.
(§2) Mice were housed in the animal facilities at Hammersmith. All experiments were conducted under PPL 70/6874, after approval by the Imperial College Ethical Review Process and the Home Office. For the plasmacytoma model, NOD/SCID mice (NOD.CB17-Prkdc^scid/IcrCrl; Charles River) were injected subcutaneously with 1.0×10^7 U266 or KMS-11 multiple myeloma cells, and then randomized into treatment groups and treated by infusion, as shown. Tumour volumes were measured as described in Mauro et al., 2011. For the orthotopic multiple myeloma model, mice of the same strain were sub-lethally irradiated and then injected intravenously with 1.0×10^7 KMS-12-BM multiple myeloma cells, as described in Rabin et al., 2007). Mice were then randomized into treatment groups and treated by infusion for 8 weeks, as shown. Animals were monitored daily and euthanized on day 161 of treatment start or when they reached any of the end-points in the PPL. Additional details are provided in the Supplemental Experimental Procedures.
(§3) Mice were housed in the animal facilities at the Hammersmith Campus, Imperial College London, and experiments were conducted under the Home Office Authority (PPL 70/6874). The PPL was reviewed by the Imperial College Ethical Review Process (ERP) and the Home Office. For experiments in the subcutaneous xenograft models (FIGS. 16-17), 6 to 8-week old male NOD/SCID mice (NOD.CB17-Prkdc^scid/IcrCrl; Charles River) were injected intraperitoneally with anti-CD122 monoclonal antibody (TM-β1 clone; 200 μg/mouse) (Tanaka et al., 1991) and, 24 hr later, subcutaneously in the left flank with 1.0×10^7 U266 or KMS-11 human multiple myeloma cells resuspended in 200 μL of sterile PBS and Matrigel (1:1) (BD Biosciences), using a 1-mL Luer-Lok™ Tip syringe (BD Biosciences) with a 25-gauge needle (Bhutani et al., 2007). U266 and KMS-11 cells were harvested from exponentially growing cultures, washed once with serum-free medium, and resuspended in PBS immediately before injection (Bhutani et al., 2007). The anti-CD122 antibody was affinity purified using HiTrap Protein G HP columns (GE Healthcare), according to the manufacturer's instructions. One week after injection of the cells, when tumour volumes had reached approximately 100 mm^3 (U266 cells) or tumours had yet to be palpable (KMS-11 cells), mice were randomized into treatment groups (n=16 or n=4 per group, respectively; day 0) (Bhutani et al., 2007) and, then, treated by continual infusion of DTP3 at a dose of 14.5 mg/kg/d, yielding a plasma concentration of 0.70±0.09 μM (SEM; n=16), or PBS. Treatments were administered using Alzet osmotic pumps (model 1004; 28-day delivery at the rate of […]; Charles River), implanted surgically subcutaneously into the right flank of each mouse, according to the manufacturer's instructions (Gullapalli et al., 2012). For systemic administration, DTP3 was dissolved at the concentration of 147 mg/mL in PBS, and mice were euthanized on day 28 of the start of treatment with CO2. Tumour diameters were measured at the indicated times using a vernier calliper, and volumes were estimated from calliper measurements using the following equation: volume=A×B^2/2 (where A is the larger diameter, and B is the smaller diameter of the tumour) (Mauro et al., 2011). Results were reproduced at least twice. The plasma concentration of DTP3 was measured at the steady state by LC-MS/MS at Cyprotex, as described above.

[4] = as above; format: in vivo, NOD/SCID mice; details: male, NOD/SCID (NOD.CB17-Prkdc^scid/IcrCrl), mouse, plasma, sc, 14.5 mg/kg/day; continual infusion via osmotic pumps, 14.5 mg/kg/d; SEM, n=16; read-out: plasma concentration at the steady state
Protocol: as §1, §2, §3

[5] = system: medullary KMS-12 multiple myeloma xenografts; format: in vivo, NOD/SCID mice; details: 29 mg/kg/day intermittent infusion over 8 weeks; experimental end-point day 161
Protocol: as §2, with “Mice were then randomized into treatment groups and treated by infusion for 8 weeks, as shown.” left out, “Additional details are provided in the Supplemental Experimental Procedures.” left out
For experiments in the medullary xenograft model, 6 to 8-week old male NOD/SCID mice (NOD.CB17-Prkdc^scid/IcrCrl; Charles River) were sub-lethally irradiated (3.50 Gy) and, then, injected intraperitoneally with purified anti-CD122 monoclonal antibody (200 μg/mouse), as above. […] Animals were monitored daily for weight loss and other clinical signs of medullary disease, such as hind limb paralysis and behavioural changes, and euthanized with CO2 on day 161 of treatment start or when the disease severity reached any of the end-points stated in the PPL. […]

[6] = 14.5 mg/kg/day continual infusion
[7] = 14.5 mg/kg/day, results not shown

CC(=O)N[C@H](Cc1ccc(O)cc1)C(=O)N[C@H](CCCNC(=N)N)C(=O)N[C@H](Cc1ccccc1)C(N)=O [DTP3, Acetyl-Tyr-Arg-Phe-NH2]
efficacy in multiple myeloma cell lines resistant to dexamethasone, bortezomib and lenalidomide [1]: retained full therapeutic efficacy
CL (FIG. 14): 27.13 ± 4.09 mL/min/kg
Vd (FIG. 14): 2.80 ± 1.26 L/kg
plasma clearance (CL) compared with z-DTP2 [2]: significantly lower
terminal half-life (t1/2) compared with z-DTP2 [2]: somewhat shorter
volume of distribution (Vd) compared with z-DTP2 [2]: much lower
side effects [3, 6]: absence of any apparent side effects
effect on established subcutaneous myeloma xenografts (tumour volume) [3, 6]: virtually eradicated
effect on established subcutaneous myeloma xenografts (tumour volume) ([3]; 14.5 mg/kg/day continual infusion, listed as DTP-3): dramatic shrinkage of the tumors
appearance of caspase-3 and PARP-1 proteolysis products in tumour [3, 7]: 3 days
appearance of phosphorylated JNK in tumour after onset of treatment [3, 7]: 24 h
level at time molar [4]: ~1000 nM
median OS [5]: > 161 days
